Patent US7531557B2, “Diaryl ethers as opioid receptor antagonists” (Eli Lilly and Company, priority 2002, dated 2009)
Counter-ions that a name gives are not always drawn. Blank lines part the entries; values can stand above or below the compound they belong to.

Key:
Diet Induced Obese Rat = assay: Indirect calorimetry assay (food consumption, energy balance); format: in vivo; settings: for minimal effective dose: Rattus norvegicus, po, lowest dose with food consumption over 24 hours significantly different from vehicle, read-out: Inhibition of Feeding Diet Induced Obese Rat Minimum Effective Dose (MED); for Energy Balance Diet Induced Obese Rat: test dose 3 mg/kg, p.o., energy balance = caloric intake minus utilization
Protocol: Indirect Calorimetry Assay
Twenty-four-hour energy expenditure (EE) and respiratory quotient (RQ) were measured by indirect calorimetry using an open circuit calorimetry system (Oxymax, Columbus Instruments Int. Corp., USA). RQ is the ratio of the volume of CO2 produced (VCO2) to the volume of O2 consumed (VO2). EE was calculated as the product of calorific value of oxygen (CV) and VO2 per kilogram of body weight, where CV=3.815+1.232 (RQ). Total calories expended were calculated to determine daily fuel utilization. To calculate the proportion of protein, fat and carbohydrate that is used during that 24-hour period, we used Flatt's proposal (see, Flatt J P 1991 Assessment of daily and cumulative carbohydrate and fat balances in mice. J Nutr Biochem 2:193-202.) and formulae as well as other derived constants (see Elia M, Livesey G 1992 Energy expenditure and fuel selection in biological systems: the theory and practice of calculations based on indirect calorimetry and tracer methods. World Rev Nutr Diet 70:68-131.). Food consumption over the 24-hour period was also measured. […] Results obtained for a sample of compounds of the invention with the indirect calorimetry assay are shown below in Table 4.

[1] = tested on: mu, delta and kappa receptors in rat striatum/nucleus accumbens; assay: Ex-vivo receptor binding of 3H-diprenorphine in rat brain after oral dosing; settings: 7 mg/kg p.o., 6 hours after administration, striatum/nucleus accumbens homogenate, versus vehicle
[2] = biological target: delta opioid receptor (DOR) (Homo sapiens, UniProt P41143); assay: SPA-based GTP-γ-S binding assay, antagonist mode, delta; format: biochemical; settings: antagonist assay against DPDPE 30 nM; Kb by Cheng-Prusoff equation; read-out: In Vitro Antagonism GTP-γ-S Kb Delta
Chain of delta opioid receptor (DOR) (P41143 whole entry): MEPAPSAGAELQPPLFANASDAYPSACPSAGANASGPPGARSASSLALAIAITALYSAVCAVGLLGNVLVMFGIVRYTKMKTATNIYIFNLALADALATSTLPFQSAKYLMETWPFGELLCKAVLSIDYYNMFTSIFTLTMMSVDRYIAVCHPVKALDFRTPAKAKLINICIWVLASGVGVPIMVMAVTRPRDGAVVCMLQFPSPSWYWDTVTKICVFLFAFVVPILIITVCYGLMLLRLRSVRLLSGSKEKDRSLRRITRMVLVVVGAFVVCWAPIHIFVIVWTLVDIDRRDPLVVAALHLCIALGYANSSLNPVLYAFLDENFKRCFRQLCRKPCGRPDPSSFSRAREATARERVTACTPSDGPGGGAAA
Protocol: (§1) An SPA—based GTP-γ-S assay format was developed based on previous opioid (Emmerson et al., J. Pharm Exp Ther 278, 1121, 1996; Horng et al., Society for Neuroscience Abstracts, 434.6, 2000) and muscarinic (DeLapp et al., JPET 289, 946, 1999) assay formats. Membranes were re-suspended in 20 mM HEPES, 100 mM NaCl, 5 mM MgCl2, 1 mM DTT, and 1 mM EDTA. Fifty (50) […] of GTP-γ-[35S], compound, membrane suspension (20 microgram/well), and wheat germ agglutinin coated SPA beads (1 mg/well) were added to clear bottom 96 well assay plates. GDP ([…]) was added to the membrane solution prior to addition to the assay plates. Plates were sealed and incubated for four hours at room temperature then placed in a refrigerator overnight to allow the beads to settle. Signal stability at 4° C. was determined to be >60 hours. Plates were warmed to room temperature and counted in a Wallac Microbeta scintillation counter. For antagonist assays, specific agonists were added at the following concentrations: (MOR) DAMGO 1 micromolar, (DOR) DPDPE 30 nM, (KOR) U69593 300 nM. Kb's were determined by Cheng-Prusoff equation (see Cheng and Prusoff, Biochem. Pharmacol. 22, 3099, 1973).

[3] = biological target: kappa opioid receptor (KOR) (Homo sapiens, UniProt P41145); assay: SPA-based GTP-γ-S binding assay, antagonist mode, kappa; format: biochemical; settings: antagonist assay against U69593 300 nM; Kb by Cheng-Prusoff equation; read-out: In Vitro Antagonism GTP-γ-S Kb Kappa
Chain of kappa opioid receptor (KOR) (P41145 whole entry): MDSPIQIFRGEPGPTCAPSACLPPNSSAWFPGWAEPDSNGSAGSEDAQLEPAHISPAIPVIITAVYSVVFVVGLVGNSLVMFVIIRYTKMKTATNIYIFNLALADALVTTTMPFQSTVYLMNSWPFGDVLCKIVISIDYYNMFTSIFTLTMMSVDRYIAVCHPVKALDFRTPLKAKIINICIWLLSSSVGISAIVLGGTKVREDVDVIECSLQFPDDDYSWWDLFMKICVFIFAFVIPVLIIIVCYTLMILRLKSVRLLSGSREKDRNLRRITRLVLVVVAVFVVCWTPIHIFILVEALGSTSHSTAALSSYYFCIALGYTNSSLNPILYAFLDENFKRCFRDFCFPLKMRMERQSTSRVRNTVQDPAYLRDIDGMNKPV
Protocol: as §1

mu opioid receptor (MOR) = mu opioid receptor (MOR) (Homo sapiens, UniProt P35372); assay: SPA-based GTP-γ-S binding assay, antagonist mode, mu; format: biochemical; settings: antagonist assay against DAMGO 1 micromolar; Kb by Cheng-Prusoff equation; read-out: In Vitro Antagonism GTP-γ-S Kb Mu
Chain of mu opioid receptor (MOR) (P35372 whole entry): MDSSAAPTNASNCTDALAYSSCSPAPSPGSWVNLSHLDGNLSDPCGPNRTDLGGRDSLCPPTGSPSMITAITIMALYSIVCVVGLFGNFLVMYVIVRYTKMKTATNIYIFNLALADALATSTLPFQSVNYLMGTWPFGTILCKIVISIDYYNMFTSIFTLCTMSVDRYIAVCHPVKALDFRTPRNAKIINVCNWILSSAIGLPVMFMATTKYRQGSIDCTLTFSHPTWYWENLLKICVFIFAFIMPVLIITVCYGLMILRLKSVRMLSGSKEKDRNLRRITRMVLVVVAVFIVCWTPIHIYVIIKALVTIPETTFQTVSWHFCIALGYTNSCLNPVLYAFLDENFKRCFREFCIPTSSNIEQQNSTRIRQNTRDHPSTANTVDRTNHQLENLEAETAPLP
Protocol: as §1

- melting point: 152 to 153 °C
Structure (SMILES): NC(=O)c1ccc(Oc2ccc(CNCC3CCCCC3)cc2F)nc1

Structure (SMILES): Cc1cc(CNCCC(C)C)ccc1Oc1ccc(C(N)=O)cn1 [Example 227, 6-[2-Methyl-4-(3-methyl-butylamino-methyl)-phenoxy]nicotinamide]
- minimal effective dose (Diet Induced Obese Rat): 0.3 mg/kg
- Energy Balance Diet Induced Obese Rat (Diet Induced Obese Rat): -68 kcal/kg/day
- Ex Vivo Binding [3H]-Diprenorphine % Inhibition of at 6 hours 7 mg/kg of test compound [1]: 55%

Structure (SMILES): CC(C)CCNCc1ccc(Oc2ccc(C(N)=O)cn2)c(F)c1 [Example 228, 6-[2-Fluoro-4-(3-methyl-butylamino-methyl)-phenoxy]nicotinamide]
- minimal effective dose (Diet Induced Obese Rat): 0.3 mg/kg
- Energy Balance Diet Induced Obese Rat (Diet Induced Obese Rat): -81 kcal/kg/day
- Ex Vivo Binding [3H]-Diprenorphine % Inhibition of at 6 hours 7 mg/kg of test compound [1]: >65%

Structure (SMILES): CC(C)CCNCc1ccc(Oc2ccc(C(N)=O)cn2)c(Cl)c1 [Example 229, 6-[2-Chloro-4-(3-methyl-butylamino-methyl)-phenoxy]nicotinamide]
- Ex Vivo Binding [3H]-Diprenorphine % Inhibition of at 6 hours 7 mg/kg of test compound [1]: 77%

Structure (SMILES): Cc1cc(CNCCC(C)(C)C)ccc1Oc1ccc(C(N)=O)cn1 [Example 238, 6-{4-[(3,3-Dimethyl-butylamino)-methyl]-2-methyl-phenoxy}-nicotinamide]
- Ex Vivo Binding [3H]-Diprenorphine % Inhibition of at 6 hours 7 mg/kg of test compound [1]: 59%

Structure (SMILES): CCCCNCc1ccc(Oc2ccc(C(N)=O)cn2)c(C)c1 [Example 240, 6-(4-Butylaminomethyl-2-methyl-phenoxy)-nicotinamide]
- Ex Vivo Binding [3H]-Diprenorphine % Inhibition of at 6 hours 7 mg/kg of test compound [1]: 38%

Structure (SMILES): Cc1cc(CNCCC(C)C)ccc1Oc1ccc(C(N)=O)cc1F [Example 246, 3-Fluoro-4-{2-methyl-4-[(3-methyl-butylamino)-methyl]-phenoxy}-benzamide]
- Ex Vivo Binding [3H]-Diprenorphine % Inhibition of at 6 hours 7 mg/kg of test compound [1]: 58%

- Kb [2]: 0.708 nM
- Kb [3]: 0.355 nM
- Kb (mu opioid receptor (MOR)): 0.068 nM
Structure (SMILES): NC(=O)c1ccc(Oc2ccc(CNCCc3cccs3)cc2)nc1 [Example 253, 6-{4-[(2-Thiophen-2-yl-ethylamino)-methyl]-phenoxy}-nicotinamide]
- minimal effective dose (Diet Induced Obese Rat): ≤ 3 mg/kg
- Energy Balance Diet Induced Obese Rat (Diet Induced Obese Rat): -19 kcal/kg/day
- Ex Vivo Binding [3H]-Diprenorphine % Inhibition of at 6 hours 7 mg/kg of test compound [1]: >40%

Structure (SMILES): NC(=O)c1ccc(Oc2ccc(CNCCc3cccc(F)c3)cc2)nc1 [Example 256, 6-(4-{[2-(3-Fluoro-phenyl)-ethylamino]-methyl}-phenoxy)-nicotinamide]
- Kb [2]: 0.677 nM
- Ex Vivo Binding [3H]-Diprenorphine % Inhibition of at 6 hours 7 mg/kg of test compound [1]: 40%
- Kb [3]: 0.894 nM
- Kb (mu opioid receptor (MOR)): 0.072 nM

Structure (SMILES): CC(C)(C)CCNCc1ccc(Oc2ccc(C(N)=O)cn2)cc1 [Example 263, 6-{4-[(3,3-Dimethyl-butylamino)-methyl]-phenoxy}-nicotinamide]
- minimal effective dose (Diet Induced Obese Rat): ≤ 3 mg/kg
- Energy Balance Diet Induced Obese Rat (Diet Induced Obese Rat): -56 kcal/kg/day
- Ex Vivo Binding [3H]-Diprenorphine % Inhibition of at 6 hours 7 mg/kg of test compound [1]: 62%

- Kb [2]: 4.4 nM
- Kb [3]: 0.4 nM
- Kb (mu opioid receptor (MOR)): 0.2 nM
Structure (SMILES): CC(C)CCNCc1ccc(Oc2ccc(C(N)=O)cn2)cc1 [Example 271, 6-{4-[(3-Methyl-butylamino)-methyl]-phenoxy}-nicotinamide]
- minimal effective dose (Diet Induced Obese Rat): 0.3 mg/kg
- Energy Balance Diet Induced Obese Rat (Diet Induced Obese Rat): -35 kcal/kg/day
- Ex Vivo Binding [3H]-Diprenorphine % Inhibition of at 6 hours 7 mg/kg of test compound [1]: >40%

Structure (SMILES): NC(=O)c1ccc(Oc2ccc(CNCCC3CCCCC3)cc2)nc1 [Example 272, 6-{4-[(2-Cyclohexyl-ethylamino)-methyl]-phenoxy}-nicotinamide]
- Ex Vivo Binding [3H]-Diprenorphine % Inhibition of at 6 hours 7 mg/kg of test compound [1]: 79%

Structure (SMILES): NC(=O)c1ccc(Oc2ccc(CNCCc3ccc(F)cc3)cc2)cc1 [Example 294, 4-(4-{[2-(4-Fluoro-phenyl)-ethylamino]-methyl}-phenoxy)-benzamide]
- Ex Vivo Binding [3H]-Diprenorphine % Inhibition of at 6 hours 7 mg/kg of test compound [1]: 50%

Structure (SMILES): NC(=O)c1ccc(Oc2ccc(CNCCC3CCCC3)cc2)nc1 [Example 309, 6-{4-[(2-Cyclopentyl-ethylamino)-methyl]-phenoxy}-nicotinamide]
- minimal effective dose (Diet Induced Obese Rat): ≤ 3 mg/kg
- Energy Balance Diet Induced Obese Rat (Diet Induced Obese Rat): -39 kcal/kg/day
- Ex Vivo Binding [3H]-Diprenorphine % Inhibition of at 6 hours 7 mg/kg of test compound [1]: >60%

Structure (SMILES): CCCCCNCc1ccc(Oc2ccc(C(N)=O)nc2)c(F)c1 [Example 405, 5-(2-Fluoro-4-pentylaminomethylphenoxy)pyridine-2-carboxamide]
- Ex Vivo Binding [3H]-Diprenorphine % Inhibition of at 6 hours 7 mg/kg of test compound [1]: 55%

Structure (SMILES): CCCCCNCc1ccc(Oc2ccc(C(N)=O)cn2)c(OC)c1 [Example 420, 6-(2-Methoxy-4-pentylaminomethylphenoxy)nicotinamide]
- Ex Vivo Binding [3H]-Diprenorphine % Inhibition of at 6 hours 7 mg/kg of test compound [1]: 75%

Structure (SMILES): COc1cc(CNCCc2ccccc2F)ccc1Oc1ccc(C(N)=O)cn1 [Example 431, 6-(4-{[2-(2-fluorophenyl)ethylamino]methyl}-2-methoxyphenoxy)nicotinamide]
- Ex Vivo Binding [3H]-Diprenorphine % Inhibition of at 6 hours 7 mg/kg of test compound [1]: 54%

Structure (SMILES): COc1cc(CNCCC(C)(C)C)ccc1Oc1ccc(C(N)=O)cn1.CS(=O)(=O)O [Example 446, 6-{4-[(3,3-Dimethylbutylamino)methyl]-2-methoxyphenoxy}nicotinamide methanesulfonate]
- Ex Vivo Binding [3H]-Diprenorphine % Inhibition of at 6 hours 7 mg/kg of test compound [1]: 55%

Structure (SMILES): NC(=O)c1ccc(Oc2ccc3c(c2)CCCN(CCc2ccccc2)C3)nc1 [Example 447, 6-(2-Phenethyl-2,3,4,5-tetrahydro-1H-benzo[c]azepin-7-yloxy)nicotinamide]
- Ex Vivo Binding [3H]-Diprenorphine % Inhibition of at 6 hours 7 mg/kg of test compound [1]: 62%

- Kb [2]: 17.5 nM
- Kb [3]: 7.86 nM
- Kb (mu opioid receptor (MOR)): 0.843 nM
Structure (SMILES): NC(=O)c1ccc(Oc2ccc(CCNCc3ccccc3)cc2Cl)nc1 [Example 475, 6-[4-(2-Benzylamino-ethyl)-2-chloro-phenoxy]-nicotinamide]

- Kb [2]: 8.9 nM
- Kb [3]: 3.38 nM
- Kb (mu opioid receptor (MOR)): 0.281 nM
Structure (SMILES): Cc1ccccc1CNCCc1ccc(Oc2ccc(C(N)=O)cn2)c(Cl)c1 [Example 476, 6-{2-Chloro-4-[2-(2-methyl-benzylamino)-ethyl]-phenoxy}-nicotinamide]

- Kb [2]: 5.78 nM
- Kb [3]: 4.5 nM
- Kb (mu opioid receptor (MOR)): 0.41 nM
Structure (SMILES): NC(=O)c1ccc(Oc2ccc(CCNCc3cccc(F)c3)cc2Cl)nc1 [Example 478, 6-{2-Chloro-4-[2-(3-fluoro-benzylamino)-ethyl]-phenoxy}-nicotinamide]

- Kb [2]: 30.1 nM
- Kb [3]: 6.86 nM
- Kb (mu opioid receptor (MOR)): 0.503 nM
Structure (SMILES): NC(=O)c1ccc(Oc2ccc(CCNCc3cccc(Cl)c3)cc2Cl)nc1 [Example 479, 6-{2-Chloro-4-[2-(3-chloro-benzylamino)-ethyl]-phenoxy}-nicotinamide]

Structure (SMILES): CC(C)(C)CCNCc1ccc(Oc2ccc(C(N)=O)cn2)c(Cl)c1 [Example 481, 6-{2-Chloro-4-[(3,3-dimethylbutylamino)-methyl]-phenoxy}-nicotinamide]
- Ex Vivo Binding [3H]-Diprenorphine % Inhibition of at 6 hours 7 mg/kg of test compound [1]: 83%

- melting point: 110 to 111 °C
Structure (SMILES): CC(C)CCN(Cc1ccc(Oc2ccc(C(N)=O)cn2)c(F)c1)CC1CCCCC1 [Example 671, 6-[4-((3-Methyl-butyl), cyclohexylmethylaminomethyl)-2-fluorophenoxy]nicotinonamide]

- melting point: 128 to 129 °C
Structure (SMILES): NC(=O)c1ccc(Oc2ccc(CNCC3CC3)cc2F)nc1 [Example 673, 6-[4-(Cyclopropylmethylaminomethyl)-2-fluorophenoxy]nicotinonamide]

Structure (SMILES): O=C1CC[C@@]2(O)[C@H]3Cc4ccc(O)c5c4[C@@]2(CCN3CC2CC2)[C@H]1O5 [Naltrexone ®, Naltrexone HCl, reference compound]
- minimal effective dose (Diet Induced Obese Rat): > 10 mg/kg
- Energy Balance Diet Induced Obese Rat (Diet Induced Obese Rat): Not significant
- Ex Vivo Binding [3H]-Diprenorphine % Inhibition of at 6 hours 7 mg/kg of test compound [1]: <40%
